Test results from patent publication US20110288052A1, “NOVEL COMPOUNDS, PHARMACEUTICAL COMPOSITIONS CONTAINING SAME, AND METHODS OF USE FOR SAME” (priority 2008, published 2011).
In brackets after ≈: the same amount, converted by molar mass. Where two headings read alike, the source gives them in different places.

Tests used:
Type in all cases: cell-based
[1] = test system: MCF-7 human breast cancer cells (fatty acid oxidation pathway activity); experiment: Fatty acid oxidation ([14C]palmitate to acid soluble products); settings: for Emax at 6.25 µg/mL: at 6.25 μg/ml; for FAO SC 150: concentration leading to 150% of control acid soluble products, Neg = threshold not reached; for Emax at 1.56 µg/mL: at 1.56 μg/ml; for Emax at 0.098 µg/mL: at 0.098 μg/ml
Description: Measurement of Fatty Acid Oxidation and Determination of SC150 of Compounds This assay measures the degradation of [^14C]palmitate into acid soluble products and is a measure of fatty acid oxidation pathway activity in vitro. It is utilized to measure fatty acid oxidation in vitro. MCF-7 human breast cancer cells cultured as above, are plated at 2.5×10^5 cells per well in 24-well plates. Following overnight incubation, the compounds to be tested, solubilized in DMSO, are added at […], 0.39, 1.56, 6.25, 25, and 100 μg/ml in triplicate, with lower concentrations tested if necessary. DMSO is added to triplicate wells for a vehicle control. C75 is run at 5 and 10 μg/ml in triplicate as positive controls. After 1 hour of incubation, medium is removed 100 uM of [^14C] palmitate in cyclodextran and 200 uM carnitine in serum free medium (250 μl volume) is added to each well. After 30 minutes of additional incubation, the reaction is stopped by addition of 2.6N HClO4. Contents of each well are transferred to 1.5 ml Eppendorf tubes and 4N KOH is added. The tubes are incubated for 30 minutes at 60° C. 1 M NaAcetate and 3N H2SO4 is added to each tube and vortexed. The tubes are centrifuged at 1000 rpm for 5 minutes at RT. 250 μl of the supernatant is transferred to a 2 ml eppendorf tube. To each tube is added: 938 μl of chloroform:methanol (1:1), 468 μl chloroform and 281 μl of deionized water. The tubes are vortexed and centrifuged at 1000 rpm for 5 minutes at RT. 750 μl of the upper phase is transferred into a scintillation vial 5 ml of scintillant is added and vials are counted for 1 minute for ^14C. The Beckman Scintillation counter calculates the average cpm values for triplicates. The SC150 for the compounds is defined as the concentration of drug leading to a 150% increase in production of acid soluble products of [^14C] palmitate as compared to untreated controls. This is determined by plotting the average cpm for each inhibitor concentration tested, performing linear regression and computing the best-fit line, r^2 values, and 95% confidence intervals. The average cpm values are computed by the Beckman scintillation counter (Model LS6500) for each compound concentration. Computation of linear regression, best-fit line, r^2, and 95% confidence intervals are calculated using Prism Version 3.0 (Graph Pad Software). If a compound fails to achieve this 150% threshold it is considered negative. The maximum value achieved is also reported (FAO Max).

[2] = test system: MCF-7 human breast cancer cells; experiment: XTT cytotoxicity assay, MCF-7 (M); settings: MCF7, MCF-7, 72 hours
Description: XTT Cytotoxicity Assay The XTT assay is a non-radioactive alternative for the [^51Cr] release cytotoxicity assay. XTT is a tetrazolium salt that is reduced to a formazan dye only by metabolically active, viable cells. The reduction of XTT is measured spectrophotometrically as OD490-OD650. To measure the cytotoxicity of specific compounds against cancer cells, 9×10^3 MCF-7 human breast cancer cells (shown in the tables as “(M)”), obtained from the American Type Culture Collection are plated per well in 96 well plates in DMEM medium with 10% fetal bovine serum, insulin, penicillin, and streptomycin. Following overnight culture at 37° C. and 5% CO2, the compounds to be tested, dissolved in DMSO, are added to the wells in 1 μl volume at the following concentrations: 80, 40, 20, 10, 5, 2.5, 1.25, and 0.625 μg/ml in triplicate. Additional concentrations are tested if required. 1 μl of DMSO is added to triplicate wells are the vehicle control. C75 is run at 40, 20, […], and 5 μg/ml in triplicate as positive controls. After 72 hours of incubation, cells are incubated for 4 hours with the XTT reagent as per manufacturer's instructions (Cell Proliferation Kit II (XTT) Roche). Plates are read at OD490 and OD650 on a Molecular Devices SpectraMax Plus Spectrophotometer. Three wells containing the XTT reagent without cells serve as the plate blank. XTT data are reported as OD490-OD650. Averages and standard error of the mean are computed using SOFTmax Pro software (Molecular Dynamics). The IC50 for the compounds is defined as the concentration of drug leading to a 50% reduction in OD490-OD650 compared to controls. The OD490-OD650 are computed by the SOFTmax PRO software (Molecular Devices) for each compound concentration. IC50 is calculated by linear regression, plotting the FAS activity as percent of control versus drug concentrations. Linear regression, best-fit line, r^2, and 95% confidence intervals are determined using Prism Version 3.0 (Graph Pad Software).

[3] = test system: Enterococcus faecalis (ATCC # 29212); experiment: Broth microdilution antimicrobial assay, E. faecalis; settings: for MIC: Enterococcus faecalis, ATCC29212
Description: Antimicrobial Properties A broth microdilution assay is used to assess the antimicrobial activity of the compounds. Compounds are tested at twofold serial dilutions, and the concentration that inhibits visible growth (OD600 at 10% of control) is defined as the MIC. Microorganisms tested include Staphylococcus aureus (ATCC # 29213), Enterococcus faecalis (ATCC # 29212), Pseudomonas aerpginosa (ATCC # 27853), and Escherichia coli (ATCC # 25922). The assay is performed in two growth media, Mueller Hinton Broth and Trypticase Soy Broth.
A blood (Tsoy/5% sheep blood) agar plate is inoculated from frozen stocks maintained in T soy broth containing 10% glycerol and incubated overnight at 37° C. Colonies are suspended in sterile broth so that the turbidity matches the turbidity of a 0.5 McFarland standard. The inoculum is diluted 1:10 in sterile broth (Mueller Hinton or Trypticase soy) and 195 μl is dispensed per well of a 96-well plate. The compounds to be tested, dissolved in DMSO, are added to the wells in 5 μl volume at the following concentrations: 25, 12.5, 6.25, 3.125, 1.56 and 0.78 μg/ml in duplicate. Additional concentrations are tested if required. 5 μl of DMSO added to duplicate wells are the vehicle control. Serial dilutions of positive control compounds, vancomycin (E. faecalis and S. aureus) and tobramycin (E. coli and P. aerpginosa), are included in each run.
After 24 hours of incubation at 37° C., plates are read at OD600 on a Molecular Devices SpectraMax Plus Spectrophotometer. Average OD600 values are computed using SOFTmax Pro Software (Molecular Devices) and MIC values are determined by linear regression analysis using Prism version 3.02 (Graph Pad Software, San Diego). The MIC is defined as the concentration of compound required to produce an OD600 reading equivalent to 10% of the vehicle control reading.

[4] = Homo sapiens, MCF7, read-out: FAO Max

| Structure (SMILES) | FAO SC 150 [1] | IC50 [2] [µg/mL] | Emax at 1.56 µg/mL [1, 4] [%] | EF/MH (MIC) ([3]; Mueller Hinton Broth) | EF/Tsoy (MIC) ([3]; Trypticase Soy Broth) | other results |
| --- | --- | --- | --- | --- | --- | --- |
| CCCCCCCCC1(C)SC(=O)C=C1OCC(=O)Nc1ccc(SC)cc1 (stereo not shown) | Neg | 7.9 (≈ 18.7 µM) | – | – | – | Emax at 6.25 µg/mL [1, 4]: 100% |
| CCCCCCCCC1(C)SC(=O)C=C1OCC(=O)Nc1cccc(OC(F)(F)F)c1 (stereo not shown) | Neg | 6.4 (≈ 13.9 µM) | 122 | – | – | – |
| CCCCCCCCC1(C)SC(=O)C=C1OCC(=O)Nc1ccccc1SC (stereo not shown) | Neg | 26.9 (≈ 63.8 µM) | – | – | – | Emax at 6.25 µg/mL [1, 4]: 114% |
| CCCCCCCCC1(C)SC(=O)C=C1OCC(=O)Nc1ccc2c(c1)OCO2 (stereo not shown) | Neg | 8.2 (≈ 19.5 µM) | – | Neg | Neg | Emax at 0.098 µg/mL [1, 4]: 45% |
| CCCCCCCCOc1ccc(NC(=O)COC2=CC(=O)SC2(C)CCCCCCCC)cc1 (stereo not shown) | Neg | > 80 | – | Neg | Neg | Emax at 0.098 µg/mL [1, 4]: 97% |
| CCCCCCCCC1(C)SC(=O)C=C1OCC(=O)Nc1ccc(Oc2ccc(Cl)cc2)cc1 (stereo not shown) | Neg | 3.1 (≈ 6.17 µM) | – | Neg | Neg | Emax at 6.25 µg/mL [1, 4]: 109% |
| CCCCCCCCC1(C)SC(=O)C=C1OCC(=O)Nc1ccccc1N1CCCCC1 (stereo not shown) | Neg | 18.6 (≈ 40.6 µM) | 119 | Neg | Neg | – |
| CCCCCCCCC1(C)SC(=O)C=C1OCC(=O)Nc1ccc(Cl)cc1Cl (stereo not shown) | Neg | 16.8 (≈ 37.8 µM) | 141 | – | – | – |
| CCCCCCCC[C@]1(C)SC(=O)C=C1OCC(=O)Nc1ccccc1C(F)(F)F | Neg | 17.6 (≈ 39.7 µM) | 105 | – | – | – |
| CCCCCCCCC1(C)SC(=O)C=C1OCC(=O)Nc1ccccc1 (stereo not shown) | Neg | 6.2 (≈ 16.5 µM) | – | Neg | Neg | Emax at 0.098 µg/mL [1, 4]: 122% |
| CCCCCCCCC1(C)SC(=O)C=C1OCC(=O)Nc1ccc(Cl)cc1 (stereo not shown) | Neg | 5.2 ± 2 (≈ 12.7 µM) | 106 | Neg | – | MIC ([3]; Trypticase Soy Broth, read-out: EF/Tsoy (MIC)): 44 µg/mL (≈ 107 µM) |
| CCCCCCCCC1(C)SC(=O)C=C1OCC(=O)Nc1ccc(-c2cccs2)cc1 (stereo not shown) | 61.9 µg/mL | > 80 | – | Neg | Neg | Emax at 100 µg/mL ([1]; Homo sapiens, MCF7, at 100 μg/ml, read-out: FAO Max): 168% |
| CCCCCCCCC1(C)SC(=O)C=C1OCC(=O)Nc1ccc(OC)cc1 (stereo not shown) | Neg | 9.7 (≈ 23.9 µM) | – | Neg | Neg | Emax at 0.098 µg/mL [1, 4]: 90% |
| CCCCCCCCC1(C)SC(=O)C=C1OCC(=O)Nc1cccc(C(F)(F)F)c1 (stereo not shown) | Neg | 5.9 (≈ 13.3 µM) | – | – | – | Emax at 0.395 µg/mL ([1]; Homo sapiens, MCF7, at 0.395 μg/ml, read-out: FAO Max): 75% |
| CCCCCCCCC1(C)SC(=O)C=C1OCC(=O)Nc1ccc(Cl)cc1C(F)(F)F (stereo not shown) | 1.9 µg/mL | 9.6 (≈ 20.1 µM) | 141 | Neg | Neg | – |
| CCCCCCCCC1(C)OC(=O)C=C1OCC(=O)Nc1ccc(Cl)cc1 (stereo not shown) | Neg | 6 (≈ 15.2 µM) | – | – | Neg | MIC ([3]; Mueller Hinton Broth, read-out: EF/MH (MIC)): 70 µg/mL (≈ 178 µM); Emax at 0.39 µg/mL ([1]; Homo sapiens, MCF7, at 0.39 μg/ml, read-out: FAO Max): 95% |
| CCCCCCCCC1(C)SC(=O)C=C1OCC(=O)Nc1ccc(OC(F)(F)F)cc1 (stereo not shown) | – | 1.8 (≈ 3.92 µM) | – | Neg | Neg | – |
| CCCCCCCC[C@]1(C)SC(=O)C=C1OCC(=O)Nc1ccccc1OC(F)(F)F | Neg | > 80 | – | – | – | Emax at 25 µg/mL ([1]; Homo sapiens, MCF7, at 25 μg/ml, read-out: FAO Max): 116% |
| CCCCCCCCC1(C)SC(=O)C=C1OCC(=O)Nc1ccc(C(F)(F)F)cc1 (stereo not shown) | Neg | 2.2 (≈ 4.96 µM) | – | Neg | Neg | Emax at 6.25 µg/mL [1, 4]: 130% |
